Read-outs that look alike come from different tables or passages of the source.
How the values were obtained:
RXF 1781L = test: 2D monolayer CellTiter-Blue viability, renal cancer RXF 1781L; format: cell-based; details: RXF 1781, 72 h; for IC50: RXF 1781L
Protocol: (§1) Mebendazole was tested in vitro across a panel of 12 tumor cell lines of ovarian and renal cancer by using a 2D monolayer assay. […] OVXF 899L and RXF 486L are P-gp expressing, multidrug resistant cell lines.
(§2) Anti-tumor activity is expressed as absolute and relative IC50/70 values, calculated by 4-parameter non-linear curve fit.

RXF 1183L = test: 2D monolayer CellTiter-Blue viability, renal cancer RXF 1183L; format: cell-based; details: for Test/Control (%) at Drug Concentration: 72 h
Protocol: as §1, §2

human P-gp transporter = human P-gp transporter (Homo sapiens, UniProt P08183); test: in vitro; details: Caco-2
P-gp = P-gp (Homo sapiens, UniProt P08183); test: in vitro; details: human
SXFO Saos-2 = test: 2D monolayer CellTiter-Blue viability, osteosarcoma Saos-2; format: cell-based; details: 72 h
Protocol: Seventeen compounds, including mebendazole (Batch no. […] Efficacy of compounds was assessed using CellTiter-Blue® Cell Viability Assay. Anti-tumor activity is expressed as absolute and relative IC50 and IC70 values, calculated by non-linear regression analysis.

[1] = Stability in human cryopreserved hepatocytes without and with cimetidine or furafylline (Example 5); format: in vitro ADME; details: human; for hepatocyte CLint at 1 µM: read-out: intrinsic clearance
Protocol: The final incubation volume was 500 μL. Two control compounds were included with each species, alongside appropriate vehicle control.
The samples were analysed for mebendazole or ethoxycoumarin using LC-MS/MS.
The final incubation volume was 500 μL.
A positive control compound, ethoxycoumarin, for CYP1A2 was included. […] The samples were analysed for mebendazole or ethoxycoumarin using LC-MS/MS.

P-gp, sequence (P08183 whole entry): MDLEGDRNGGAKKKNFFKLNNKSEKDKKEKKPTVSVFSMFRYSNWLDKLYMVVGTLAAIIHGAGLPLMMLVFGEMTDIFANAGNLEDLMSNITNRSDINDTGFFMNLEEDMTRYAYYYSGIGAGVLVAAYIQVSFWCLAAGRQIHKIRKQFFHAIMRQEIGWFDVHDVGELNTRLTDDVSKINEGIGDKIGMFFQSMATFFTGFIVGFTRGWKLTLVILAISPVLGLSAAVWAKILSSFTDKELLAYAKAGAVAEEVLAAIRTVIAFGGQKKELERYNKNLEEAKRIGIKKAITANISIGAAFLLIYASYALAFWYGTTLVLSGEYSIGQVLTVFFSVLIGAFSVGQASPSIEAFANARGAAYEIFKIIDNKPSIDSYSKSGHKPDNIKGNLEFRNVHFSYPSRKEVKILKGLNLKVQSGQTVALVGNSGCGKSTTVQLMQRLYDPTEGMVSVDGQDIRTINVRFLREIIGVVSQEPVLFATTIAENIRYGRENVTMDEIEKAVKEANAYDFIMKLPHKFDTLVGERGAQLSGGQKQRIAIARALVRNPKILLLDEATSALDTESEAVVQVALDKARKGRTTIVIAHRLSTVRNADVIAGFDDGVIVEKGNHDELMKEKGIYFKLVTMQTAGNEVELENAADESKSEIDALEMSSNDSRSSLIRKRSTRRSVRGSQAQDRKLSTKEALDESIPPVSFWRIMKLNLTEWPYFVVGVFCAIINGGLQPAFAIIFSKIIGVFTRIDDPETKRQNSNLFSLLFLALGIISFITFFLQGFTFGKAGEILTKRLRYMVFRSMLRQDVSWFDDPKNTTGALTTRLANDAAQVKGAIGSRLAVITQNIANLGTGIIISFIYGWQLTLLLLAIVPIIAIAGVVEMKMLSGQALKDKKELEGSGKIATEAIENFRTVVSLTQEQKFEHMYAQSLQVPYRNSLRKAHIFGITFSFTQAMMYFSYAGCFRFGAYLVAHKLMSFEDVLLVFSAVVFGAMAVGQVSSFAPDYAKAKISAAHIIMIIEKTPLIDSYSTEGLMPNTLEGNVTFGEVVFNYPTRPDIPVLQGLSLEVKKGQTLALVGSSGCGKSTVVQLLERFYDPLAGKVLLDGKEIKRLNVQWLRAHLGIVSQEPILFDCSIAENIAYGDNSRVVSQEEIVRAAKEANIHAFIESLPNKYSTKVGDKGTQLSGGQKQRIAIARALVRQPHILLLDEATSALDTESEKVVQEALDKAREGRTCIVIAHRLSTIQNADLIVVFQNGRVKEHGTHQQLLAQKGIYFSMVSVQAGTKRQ
human P-gp transporter, sequence (P08183 whole entry): as above

IC50 (RXF 1781L; read-out: Abs. IC50): 395 nM
IC50 (RXF 1781L; read-out: Rel. IC50): 309 nM
IC50 (RXF 1183L; RXF 1183, 72 h, read-out: Abs. IC50): 925 nM
IC50 (RXF 1183L; RXF 1183, 72 h, read-out: Rel. IC50): 1310 nM
passive permeability (human P-gp transporter): high passive permeability
efflux ratio at 120 min, 10 μM (P-gp; Caco-2): 1.17
Papp A→B at 120 min, 10 μM (P-gp; Caco-2, Papp Mean): 25.4 ×10⁻⁶ cm/s
Papp B→A at 120 min, 10 μM (P-gp; Caco-2, Papp Mean): 29.8 ×10⁻⁶ cm/s
Papp A→B at 120 min, 10 μM (P-gp; Caco-2, Papp Rep 1): 22.4 ×10⁻⁶ cm/s
Papp B→A at 120 min, 10 μM (P-gp; Caco-2, Papp Rep 1): 30.2 ×10⁻⁶ cm/s
Papp A→B at 120 min, 10 μM (P-gp; Caco-2, Papp Rep 2): 28.5 ×10⁻⁶ cm/s
Papp B→A at 120 min, 10 μM (P-gp; Caco-2, Papp Rep 2): 29.4 ×10⁻⁶ cm/s
recovery at 120 min, 10 µM (P-gp; Caco-2, calculated mean % recovery values (range)): 55.7 to 75.1%
half-life at 1 μM ([1]; cryopreserved hepatocytes (suspension), in the presence of cimetidine (30-300 μM), read-out: half-life, maximum): ≤ 2.32 h
half-life at 1 μM ([1]; cryopreserved hepatocytes (suspension), substrate 1 μM, no inhibitor, read-out: t1/2): 1.73 h
hepatocyte CLint at 1 µM ([1]; cryopreserved hepatocytes (suspension), with furafylline 10 µM, substrate 1 μM, 10 μM furafylline): 2.43 µL/min/1e6 cells
hepatocyte CLint at 1 µM ([1]; cryopreserved hepatocytes (suspension), with furafylline 30 µM, substrate 1 μM, 30 μM furafylline): 1.47 µL/min/1e6 cells
half-life at 1 μM ([1]; cryopreserved hepatocytes (suspension), with furafylline 3-30 µM (maximum half-life over 3, 10 and 30 µM), in the presence of furafylline (3-30 μM), read-out: half-life, maximum): ≤ 15.7 h
hepatocyte CLint at 1 µM ([1]; cryopreserved hepatocytes, substrate 1 μM, absence of inhibitor (inhibitor experiment)): 13.3 µL/min/1e6 cells
hepatocyte CLint at 1 µM ([1]; cryopreserved hepatocytes, substrate 1 μM, hepatocyte stability investigation (no inhibitor arm)): 19.1 µL/min/1e6 cells
hepatocyte CLint at 1 µM ([1]; cryopreserved hepatocytes, with cimetidine 30 μM, substrate 1 μM, 30 μM cimetidine): 13.2 µL/min/1e6 cells
half-life at 1 μM ([1]; cryopreserved hepatocytes, with cimetidine 30 μM, substrate 1 μM, cimetidine 30 μM, read-out: t1/2): 1.75 h
hepatocyte CLint at 1 µM ([1]; cryopreserved hepatocytes, with cimetidine 100 μM, substrate 1 μM, 100 μM cimetidine): 14.7 µL/min/1e6 cells
half-life at 1 μM ([1]; cryopreserved hepatocytes, with cimetidine 100 μM, substrate 1 μM, cimetidine 100 μM, read-out: t1/2): 1.57 h
hepatocyte CLint at 1 µM ([1]; cryopreserved hepatocytes, with cimetidine 300 μM, substrate 1 μM, 300 μM cimetidine): 9.98 µL/min/1e6 cells
half-life at 1 μM ([1]; cryopreserved hepatocytes, with cimetidine 300 μM, substrate 1 μM, cimetidine 300 μM, read-out: t1/2): 2.32 h
hepatocyte CLint at 1 µM ([1]; cryopreserved hepatocytes, with furafylline 3 μM, substrate 1 μM, 3 μM furafylline): 3.47 µL/min/1e6 cells
half-life at 1 μM ([1]; cryopreserved hepatocytes, with furafylline 3 μM, substrate 1 μM, furafylline 3 μM, read-out: t1/2): 6.65 h
half-life at 1 μM ([1]; cryopreserved hepatocytes, with furafylline 10 μM, substrate 1 μM, furafylline 10 μM, read-out: t1/2): 9.5 h
half-life at 1 μM ([1]; cryopreserved hepatocytes, with furafylline 30 μM, substrate 1 μM, furafylline 30 μM, read-out: t1/2): 15.7 h
Compound: COC(=O)Nc1nc2ccc(C(=O)c3ccccc3)cc2[nH]1 [Mebendazole, methyl N-(6-benzoyl-1H-benzimidazol-2-yl)carbamate]
Top (%) (RXF 1781L; curve fit): 96%
Test/Control (%) at Drug Concentration (RXF 1183L; RXF 1183, 1.0E+00 μM): 54%
Test/Control (%) at Drug Concentration (RXF 1183L; RXF 1183, 1.0E−01 μM): 79%
Test/Control (%) at Drug Concentration (RXF 1183L; RXF 1183, 1.0E−02 μM): 91%
Test/Control (%) at Drug Concentration (RXF 1183L; RXF 1183, 1.0E−03 μM): 93%
Test/Control (%) at Drug Concentration (RXF 1183L; RXF 1183, 1.0E−04 μM): 91%
Test/Control (%) at Drug Concentration (RXF 1183L; RXF 1183, 3.2E+00 μM): 32%
Test/Control (%) at Drug Concentration (RXF 1183L; RXF 1183, 3.2E−01 μM): 58%
Test/Control (%) at Drug Concentration (RXF 1183L; RXF 1183, 3.2E−02 μM): 80%
Test/Control (%) at Drug Concentration (RXF 1183L; RXF 1183, 3.2E−03 μM): 88%
Test/Control (%) at Drug Concentration (RXF 1183L; RXF 1183, 3.2E−04 μM): 88%
Abs. IC70 (RXF 1183L; RXF 1183, 72 h): >3200 nM
Rel. IC70 (RXF 1183L; RXF 1183, 72 h): >3200 nM
Bot. (%) (RXF 1183L; RXF 1183, 72 h, curve fit): 0%
Top (%) (RXF 1183L; RXF 1183, 72 h, curve fit): 91%
Test/Control (%) at Drug Concentration (SXFO Saos-2; Saos-2, 1.0E+00 μM): 19%
Test/Control (%) at Drug Concentration (SXFO Saos-2; Saos-2, 1.0E+01 μM): 11%
Test/Control (%) at Drug Concentration (SXFO Saos-2; Saos-2, 1.0E+02 μM): 6%
Test/Control (%) at Drug Concentration (SXFO Saos-2; Saos-2, 1.0E−01 μM): 73%
Test/Control (%) at Drug Concentration (SXFO Saos-2; Saos-2, 1.0E−02 μM): 74%
Test/Control (%) at Drug Concentration (SXFO Saos-2; Saos-2, 3.2E+00 μM): 20%
Test/Control (%) at Drug Concentration (SXFO Saos-2; Saos-2, 3.2E+01 μM): 12%
Test/Control (%) at Drug Concentration (SXFO Saos-2; Saos-2, 3.2E−01 μM): 29%
Test/Control (%) at Drug Concentration (SXFO Saos-2; Saos-2, 3.2E−02 μM): 73%
Test/Control (%) at Drug Concentration (SXFO Saos-2; Saos-2, 3.2E−03 μM): 77%

Source: patent publication US20220125765A1, “PHARMACEUTICAL COMBINATIONS COMPRISING MEBENDAZOLE AND A STRONG OR MODERATE CYP1A2 INHIBITOR” (ZEPHAPHARM LTD, priority 2019, published 2022)
